Reference: patent publication US20160102052A1, “Use of Cysteamine in Treating Infections caused by Yeasts/Moulds” (priority 2014, published 2016)

System: Exophiala dermatitidis CA01
Assay: Broth microdilution chequerboard analysis of Lynovex (NM001) in combination with clinical antifungals
Assay type: cell-based
Settings: 35° C.; for MIC50: Exophiala dermatitidis, NM001 in isolation
Procedure: The aim of the experiment was to determine the effect of Lynovex (NM001) on the antifungal drug susceptibility of Exophiala dermatitidis CA01. Microtitre plates were prepared following CLSI recommendations for broth microdilution chequerboard method. These plates contained a serial doubling dilution of Lynovex (NM001) combined with serial doubling dilutions of antifungals drugs; Fluconazole, Itraconazole, Caspofungin and Amphotericin B. […] These were incubated at 35° C. and read at 72 h, 96 h, 120 h and 144 h on the BioTek plate reader. […] Three independent E. dermatitidis CA01 cultures were grown on PDA slope for 6 days at 35° C. • 7. Cultures were removed from incubator. 2 ml sterile 0.15M NaCl added to the overnight culture and cells harvested from the surface of the agar. Cells placed in fresh bijou tube. • 8. The cultures were allowed to rest for up to 10 minutes, allowing any hyphae to settle to the bottom. The top layer of conidia was removed into fresh bijou. Hyphae were discarded. • 9. […] This is continued to F12 where 100 μl is removed and discarded. • f. This dilution series was repeated in rows G-H for the remaining 2 cultures • g. Plate read at OD530 on BioTek • h. […] This preparation step occurs in two parts. First, Lynovex (NM001) and antifungals are serially diluted, down and across microtitre plates, respectively. Equal volumes of Lynovex and antifungal are then combined in a fresh microtitre plate, prior to inoculation. […] Stock solutions of Lynovex and antifungals were prepared at 4× desired concentrations. The plate layout at the end of this protocol is the final concentration in the plate following the combination of Lynovex and antifungals and the addition of the inocula. […] All other wells contain 150 μl sterile dH2O. • 9. Serial doubling dilutions are carried out from A to B whereby 150 μl is removed from A and placed into B and mixed well. Then take 150 μl B and place in C and mix well. This is repeated down to row G where the final 150 μl is discarded. […] The same procedure is repeated for the other 4 antifungals, carrying the dilutions across the plate i.e. […] At the final dilution in column 10, the final 150 μl is discarded. […] Inoculating Plates with E. dermatitidis CA01 • 6. Add 100 μl (total volume 200 μl) of the prepared E. dermatitidis CA01 culture to the all wells on the plate except wells H12. […] H12 will contain 100 μl water and 100 μl 2×RPMI-1640 alone, constituting an uninoculated control. • 8. The plate is read in the BioTek at OD530. • 9. Plates are then placed in a plastic box containing a Petri dish of water, sealed and incubated at 35° C. The presence of the water in the dish or on the tissue provides and environment of relatively high humidity. • 10. OD530 is then read at 72 h, 96 h, 120 h and 144 h and raw data processed using Microsoft Excel. • 11. Fractional Inhibitory Concentration (FIC) Index values are generated using MIC100 for 72 h data and MIC50 for later time points using the following formula: […]

NCCS [NM001, cysteamine]
MIC50 (CA01, 72 h, GEOMEAN, Amphotericin B chequerboard, 72 h): 461 µg/mL
MIC50 (CA01, 72 h, GEOMEAN, Caspofungin chequerboard, 72 h): 1250 µg/mL
MIC50 (CA01, 72 h, GEOMEAN, Fluconazole chequerboard, 72 h): 1250 µg/mL
MIC50 (CA01, 72 h, GEOMEAN, Itraconazole chequerboard, 72 h): 1250 µg/mL
MIC50 (CA01, 72 h, MEAN, Amphotericin B chequerboard, 72 h): 667 µg/mL
MIC50 (CA01, 72 h, MEAN, Caspofungin chequerboard, 72 h): 1460 µg/mL
MIC50 (CA01, 72 h, MEAN, Fluconazole chequerboard, 72 h): 1250 µg/mL
MIC50 (CA01, 72 h, MEAN, Itraconazole chequerboard, 72 h): 1510 µg/mL
MIC50 (CA01, 72 h, Range, Amphotericin B chequerboard, 72 h): 125 to 1250 µg/mL
MIC50 (CA01, 72 h, Range, Caspofungin chequerboard, 72 h): 625 to 2500 µg/mL
MIC50 (CA01, 72 h, Range, Fluconazole chequerboard, 72 h): 1250 µg/mL
MIC50 (CA01, 72 h, Range, Itraconazole chequerboard, 72 h): 312 to 2500 µg/mL
MIC50 (CA01, 96 h, GEOMEAN, Amphotericin B chequerboard, 96 h): 625 µg/mL
MIC50 (CA01, 96 h, GEOMEAN, Caspofungin chequerboard, 96 h): 1090 µg/mL
MIC50 (CA01, 96 h, GEOMEAN, Fluconazole chequerboard, 96 h): 787 µg/mL
MIC50 (CA01, 96 h, GEOMEAN, Itraconazole chequerboard, 96 h): 1130 µg/mL
MIC50 (CA01, 96 h, MEAN, Amphotericin B chequerboard, 96 h): 885 µg/mL
MIC50 (CA01, 96 h, MEAN, Caspofungin chequerboard, 96 h): 1530 µg/mL
MIC50 (CA01, 96 h, MEAN, Fluconazole chequerboard, 96 h): 885 µg/mL
MIC50 (CA01, 96 h, MEAN, Itraconazole chequerboard, 96 h): 1520 µg/mL
MIC50 (CA01, 96 h, Range, Amphotericin B chequerboard, 96 h): 156 to 1250 µg/mL
MIC50 (CA01, 96 h, Range, Caspofungin chequerboard, 96 h): 156 to 2500 µg/mL
MIC50 (CA01, 96 h, Range, Fluconazole chequerboard, 96 h): 312 to 1250 µg/mL
MIC50 (CA01, 96 h, Range, Itraconazole chequerboard, 96 h): 312 to 2500 µg/mL
MIC50 (CA01, 120 h, GEOMEAN, Amphotericin B chequerboard, 120 h): 743 µg/mL
MIC50 (CA01, 120 h, GEOMEAN, Caspofungin chequerboard, 120 h): 1440 µg/mL
MIC50 (CA01, 120 h, GEOMEAN, Fluconazole chequerboard, 120 h): 1770 µg/mL
MIC50 (CA01, 120 h, GEOMEAN, Itraconazole chequerboard, 120 h): 1250 µg/mL
MIC50 (CA01, 120 h, MEAN, Amphotericin B chequerboard, 120 h): 977 µg/mL
MIC50 (CA01, 120 h, MEAN, Caspofungin chequerboard, 120 h): 1750 µg/mL
MIC50 (CA01, 120 h, MEAN, Fluconazole chequerboard, 120 h): 1880 µg/mL
MIC50 (CA01, 120 h, MEAN, Itraconazole chequerboard, 120 h): 1500 µg/mL
MIC50 (CA01, 120 h, Range, Amphotericin B chequerboard, 120 h): 156 to 1250 µg/mL
MIC50 (CA01, 120 h, Range, Caspofungin chequerboard, 120 h): 625 to 2500 µg/mL
MIC50 (CA01, 120 h, Range, Fluconazole chequerboard, 120 h): 1250 to 2500 µg/mL
MIC50 (CA01, 120 h, Range, Itraconazole chequerboard, 120 h): 625 to 2500 µg/mL
MIC50 (CA01, 144 h, GEOMEAN, Amphotericin B chequerboard, 144 h): 787 µg/mL
MIC50 (CA01, 144 h, GEOMEAN, Caspofungin chequerboard, 144 h): 1580 µg/mL
MIC50 (CA01, 144 h, GEOMEAN, Fluconazole chequerboard, 144 h): 1490 µg/mL
MIC50 (CA01, 144 h, GEOMEAN, Itraconazole chequerboard, 144 h): 1770 µg/mL
MIC50 (CA01, 144 h, MEAN, Amphotericin B chequerboard, 144 h): 1300 µg/mL
MIC50 (CA01, 144 h, MEAN, Caspofungin chequerboard, 144 h): 1880 µg/mL
MIC50 (CA01, 144 h, MEAN, Fluconazole chequerboard, 144 h): 1720 µg/mL
MIC50 (CA01, 144 h, MEAN, Itraconazole chequerboard, 144 h): 2030 µg/mL
MIC50 (CA01, 144 h, Range, Amphotericin B chequerboard, 144 h): 156 to 2500 µg/mL
MIC50 (CA01, 144 h, Range, Caspofungin chequerboard, 144 h): 625 to 2500 µg/mL
MIC50 (CA01, 144 h, Range, Fluconazole chequerboard, 144 h): 625 to 2500 µg/mL
MIC50 (CA01, 144 h, Range, Itraconazole chequerboard, 144 h): 625 to 2500 µg/mL
NM001 MIC100 in Combination (GEOMEAN, in combination with Amphotericin B, 72 h): 39 µg/mL
NM001 MIC50 in Combination (GEOMEAN, in combination with Amphotericin B, 96 h): 55 µg/mL
NM001 MIC50 in Combination (GEOMEAN, in combination with Amphotericin B, 120 h): 156 µg/mL
NM001 MIC50 in Combination (GEOMEAN, in combination with Amphotericin B, 144 h): 442 µg/mL
NM001 MIC100 in Combination (GEOMEAN, in combination with Caspofungin, 72 h): 78 µg/mL
NM001 MIC50 in Combination (GEOMEAN, in combination with Caspofungin, 96 h): 90 µg/mL
NM001 MIC50 in Combination (GEOMEAN, in combination with Caspofungin, 120 h): 118 µg/mL
NM001 MIC50 in Combination (GEOMEAN, in combination with Caspofungin, 144 h): 394 µg/mL
NM001 MIC100 in Combination (GEOMEAN, in combination with Fluconazole, 72 h): 312.5 µg/mL
NM001 MIC50 in Combination (GEOMEAN, in combination with Fluconazole, 96 h): 139 µg/mL
NM001 MIC50 in Combination (GEOMEAN, in combination with Fluconazole, 120 h): 263 µg/mL
NM001 MIC50 in Combination (GEOMEAN, in combination with Fluconazole, 144 h): 263 µg/mL
NM001 MIC100 in Combination (GEOMEAN, in combination with Itraconazole, 72 h): 179 µg/mL
NM001 MIC50 in Combination (GEOMEAN, in combination with Itraconazole, 96 h): 78 µg/mL
NM001 MIC50 in Combination (GEOMEAN, in combination with Itraconazole, 120 h): 136 µg/mL
NM001 MIC50 in Combination (GEOMEAN, in combination with Itraconazole, 144 h): 197 µg/mL
NM001 MIC100 in Combination (MEAN, in combination with Amphotericin B, 72 h): 39 µg/mL
NM001 MIC50 in Combination (MEAN, in combination with Amphotericin B, 96 h): 59 µg/mL
NM001 MIC50 in Combination (MEAN, in combination with Amphotericin B, 120 h): 221 µg/mL
NM001 MIC50 in Combination (MEAN, in combination with Amphotericin B, 144 h): 469 µg/mL
NM001 MIC100 in Combination (MEAN, in combination with Caspofungin, 72 h): 78 µg/mL
NM001 MIC50 in Combination (MEAN, in combination with Caspofungin, 96 h): 102 µg/mL
NM001 MIC50 in Combination (MEAN, in combination with Caspofungin, 120 h): 148 µg/mL
NM001 MIC50 in Combination (MEAN, in combination with Caspofungin, 144 h): 417 µg/mL
NM001 MIC100 in Combination (MEAN, in combination with Fluconazole, 72 h): 365 µg/mL
NM001 MIC50 in Combination (MEAN, in combination with Fluconazole, 96 h): 176 µg/mL
NM001 MIC50 in Combination (MEAN, in combination with Fluconazole, 120 h): 312.5 µg/mL
NM001 MIC50 in Combination (MEAN, in combination with Fluconazole, 144 h): 400 µg/mL
NM001 MIC100 in Combination (MEAN, in combination with Itraconazole, 72 h): 203 µg/mL
NM001 MIC50 in Combination (MEAN, in combination with Itraconazole, 96 h): 89 µg/mL
NM001 MIC50 in Combination (MEAN, in combination with Itraconazole, 120 h): 156.25 µg/mL
NM001 MIC50 in Combination (MEAN, in combination with Itraconazole, 144 h): 208 µg/mL
NM001 MIC100 in Combination (Range, in combination with Amphotericin B, 72 h): 39 µg/mL
NM001 MIC50 in Combination (Range, in combination with Amphotericin B, 96 h): 39.0625 to 78.125 µg/mL
NM001 MIC50 in Combination (Range, in combination with Amphotericin B, 120 h): 39.06 to 312.5 µg/mL
NM001 MIC50 in Combination (Range, in combination with Amphotericin B, 144 h): 312.5 to 625 µg/mL
NM001 MIC100 in Combination (Range, in combination with Caspofungin, 72 h): 78 µg/mL
NM001 MIC50 in Combination (Range, in combination with Caspofungin, 96 h): 39.0625 to 156.25 µg/mL
NM001 MIC50 in Combination (Range, in combination with Caspofungin, 120 h): 39.06 to 312.5 µg/mL
NM001 MIC50 in Combination (Range, in combination with Caspofungin, 144 h): 312.5 to 625 µg/mL
NM001 MIC100 in Combination (Range, in combination with Fluconazole, 72 h): 156 to 625 µg/mL
NM001 MIC50 in Combination (Range, in combination with Fluconazole, 96 h): 39.06 to 156.25 µg/mL
NM001 MIC50 in Combination (Range, in combination with Fluconazole, 120 h): 156.25 to 625 µg/mL
NM001 MIC50 in Combination (Range, in combination with Fluconazole, 144 h): 39.0625 to 625 µg/mL
NM001 MIC100 in Combination (Range, in combination with Itraconazole, 72 h): 78 to 312.5 µg/mL
NM001 MIC50 in Combination (Range, in combination with Itraconazole, 96 h): 39.06 to 156.25 µg/mL
NM001 MIC50 in Combination (Range, in combination with Itraconazole, 120 h): 78.13 to 312.5 µg/mL
NM001 MIC50 in Combination (Range, in combination with Itraconazole, 144 h): 156.25 to 312.5 µg/mL
